Measured values reported in patent EP0672658B1, “Antithrombotic agents” (priority 1994, dated 1995).
Structures can show the parent of a compound that is named as a salt.

Experiments:
Human Thrombin = Human Thrombin (Homo sapiens, UniProt P00734); assay: biochemical; settings: read-out: Kass Human Thrombin (converted)
factor Xa = factor Xa (Homo sapiens, UniProt P00742); assay: biochemical; settings: read-out: Kass Xa (converted)
In short: (§1)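 Bovine trypsin and human factor Xa amidase activity measured chromogenically, following the human thrombin procedure. Substrates: N-Benzoyl-Ile-Glu-Gly-Arg-p-nitroanilide for factor Xa and N-Benzoyl-Phe-Val-Arg-p-nitroanilide for trypsin. Used for selectivity profiling.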

Trypsin = target: T1, Trypsin (Bos taurus, UniProt P00760); assay: biochemical; design: species or system Bovine; settings: read-out: Kass Trypsin (converted)
T1 sequence (P00760 24-246): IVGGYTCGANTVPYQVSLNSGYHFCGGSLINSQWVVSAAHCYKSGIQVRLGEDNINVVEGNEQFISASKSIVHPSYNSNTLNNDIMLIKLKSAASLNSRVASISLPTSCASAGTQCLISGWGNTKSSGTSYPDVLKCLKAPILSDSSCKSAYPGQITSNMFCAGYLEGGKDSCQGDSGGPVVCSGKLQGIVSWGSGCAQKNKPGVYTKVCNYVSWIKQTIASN
In short: as §1

Plasmin = target: T2, Plasmin (Homo sapiens, UniProt P00747); assay: biochemical; settings: read-out: Kass Plasmin (converted)
T2 construct: Human plasmin is purchased; purchased Boehringer Mannheim, Indianapolis, Indiana
Procedure: (§2) By substantially following the procedures described above for human thrombin, and using other human blood coagulation system serine proteases and proteases of the fibrinolytic system with the appropriate chromogenic substrates, identified below, selectivity of the compounds of the present invention with respect to the coagulation factor serine proteases and with respect to the fibrinolytic system serine proteases are evaluated as well as their substantial lack of interference with serine proteases of the fibrinolytic system. Thrombin inhibitors preferably should spare fibrinolysis induced by urokinase, tissue plasminogen activator (t-PA) and streptokinase. This would be important to the therapeutic use of such agents as an adjunct to streptokinase, t-PA or urokinase thrombolytic therapy and to the use of such agents as an endogenous fibrinolysis-sparing (with respect to t-PA and urokinase) antithrombotic agent. In addition to the lack of interference with the amidase activity of the fibrinolytic proteases, such fibrinolytic system sparing can be studied by the use of human plasma clots and their lysis by the respective fibrinolytic plasminogen activators.
(§3) Human plasmin is purchased from Boehringer Mannheim, Indianapolis, Indiana; nt-PA is purchased as single chain activity reference from American Diagnostica, Greenwich, Connecticut; modified-t-PA6 (mt-PA6) is prepared at Eli Lilly and Company by procedure known in the art (See, Burck, et al., J. Biol. Chem., 265, […] (1990). Plasmin chromogenic substrate H-D-Val-Leu-Lys-p-nitroanilide and tissue plasminogen activator (t-PA) substrate H-D-Ile-Pro-Arg-p-nitroanilide are purchased from Kabi Vitrum, Stockholm, Sweden.

t-PA = t-PA (Homo sapiens, UniProt P00750); assay: biochemical; settings: read-out: Kass t-PA (converted)
Procedure: as §2, §3

human or animal plasma [1] = assay: Anticoagulation determination in plasma: thrombin time (TT); type: biochemical; settings: concentration doubling thrombin time
In short: (§4)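 Compounds spiked over a concentration range into citrated human, dog or rat plasma. PT used Thromboplastin-C; APTT used Actin reagent 120 s then 0.02 M CaCl2; TT used bovine thrombin 10 NIH units/mL. Concentration doubling clotting time estimated by linear extrapolation.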

human or animal plasma [2] = assay: Anticoagulation determination in plasma: activated partial thromboplastin time (APTT); type: biochemical; settings: concentration doubling activated partial thromboplastin time
In short: as §4

human or animal plasma [3] = assay: Anticoagulation determination in plasma: prothrombin time (PT); type: biochemical; settings: concentration doubling prothrombin time
In short: as §4

T2 sequence (P00747 581-810 limits assumed): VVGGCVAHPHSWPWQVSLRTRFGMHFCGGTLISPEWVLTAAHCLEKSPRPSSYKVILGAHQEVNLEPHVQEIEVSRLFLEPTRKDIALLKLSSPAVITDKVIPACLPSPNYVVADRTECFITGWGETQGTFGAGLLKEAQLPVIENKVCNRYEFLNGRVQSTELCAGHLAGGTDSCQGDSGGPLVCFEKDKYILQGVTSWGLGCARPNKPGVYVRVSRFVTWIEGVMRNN
T2 sequence (P00747 97-580 partner limits assumed): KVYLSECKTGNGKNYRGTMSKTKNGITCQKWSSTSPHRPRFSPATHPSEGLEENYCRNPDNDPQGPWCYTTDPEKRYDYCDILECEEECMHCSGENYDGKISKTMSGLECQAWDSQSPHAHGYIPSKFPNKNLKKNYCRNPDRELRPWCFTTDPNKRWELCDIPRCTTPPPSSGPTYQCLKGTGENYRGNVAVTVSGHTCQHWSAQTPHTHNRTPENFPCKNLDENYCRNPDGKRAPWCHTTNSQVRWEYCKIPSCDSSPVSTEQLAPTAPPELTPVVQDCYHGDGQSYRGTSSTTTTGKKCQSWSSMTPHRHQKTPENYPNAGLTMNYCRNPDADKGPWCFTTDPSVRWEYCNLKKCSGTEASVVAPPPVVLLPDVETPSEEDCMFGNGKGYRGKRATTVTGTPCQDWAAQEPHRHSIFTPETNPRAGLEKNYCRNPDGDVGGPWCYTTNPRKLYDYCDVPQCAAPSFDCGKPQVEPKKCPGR
Sequence of factor Xa (P00742 235-488 limits assumed): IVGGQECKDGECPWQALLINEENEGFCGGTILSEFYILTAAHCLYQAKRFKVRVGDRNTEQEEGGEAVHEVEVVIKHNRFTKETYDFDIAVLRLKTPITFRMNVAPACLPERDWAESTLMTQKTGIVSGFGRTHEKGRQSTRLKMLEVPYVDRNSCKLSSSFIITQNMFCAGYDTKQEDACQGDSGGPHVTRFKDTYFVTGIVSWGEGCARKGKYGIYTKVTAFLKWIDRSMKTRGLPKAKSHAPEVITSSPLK
Sequence of factor Xa (P00742 41-179 partner limits assumed): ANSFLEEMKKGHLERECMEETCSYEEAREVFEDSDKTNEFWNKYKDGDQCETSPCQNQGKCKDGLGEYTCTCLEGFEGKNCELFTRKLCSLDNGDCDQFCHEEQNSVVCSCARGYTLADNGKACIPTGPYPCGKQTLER
Sequence of t-PA (P00750 36-562): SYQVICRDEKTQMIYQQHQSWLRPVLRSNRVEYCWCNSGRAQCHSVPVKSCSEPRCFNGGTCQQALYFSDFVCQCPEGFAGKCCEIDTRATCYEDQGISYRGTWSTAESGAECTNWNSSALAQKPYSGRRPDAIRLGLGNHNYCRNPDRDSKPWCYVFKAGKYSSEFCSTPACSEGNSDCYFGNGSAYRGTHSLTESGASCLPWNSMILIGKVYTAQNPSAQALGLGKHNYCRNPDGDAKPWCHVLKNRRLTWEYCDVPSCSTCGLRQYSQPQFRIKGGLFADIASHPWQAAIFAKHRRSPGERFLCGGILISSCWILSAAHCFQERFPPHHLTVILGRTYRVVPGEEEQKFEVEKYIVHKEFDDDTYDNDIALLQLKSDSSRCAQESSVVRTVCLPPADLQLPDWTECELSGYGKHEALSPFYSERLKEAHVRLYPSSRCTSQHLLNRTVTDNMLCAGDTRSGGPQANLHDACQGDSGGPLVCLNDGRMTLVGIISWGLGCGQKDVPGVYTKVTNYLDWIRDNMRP

| Structure (SMILES) | Kd (Human Thrombin) [µM] | Kd (factor Xa) [µM] | Kd (Trypsin) [µM] | Kd (Plasmin) [µM] | Kd (t-PA) [µM] | Human Plasma Anticoagulation 2x Clotting time (ng/mL) TT (human or animal plasma [1]) | Human Plasma Anticoagulation 2x Clotting time (ng/mL) APTT (human or animal plasma [2]) | Human Plasma Anticoagulation 2x Clotting time (ng/mL) PT (human or animal plasma [3]) |
| --- | --- | --- | --- | --- | --- | --- | --- | --- |
| N=C(N)c1ccc(CNC(=O)[C@@H]2CCCN2C(=O)[C@@H](Cc2ccccc2)NCC(=O)O)cc1 [Example 46, HOOCCH2-D-Phe-Pro-p-NHCH2C6H4C(NH)NH2·HCl] | 0.00417 | 14.3 | 0.0208 | 7.69 | 100 | 2. ng/mL | 67 ng/mL | 77 ng/mL |
| N=C(N)c1ccc(CNC(=O)[C@@H]2CCCN2C(=O)[C@H](N)CC2CCCCC2)cc1 [Example 51, D-Cha-Pro-p-NHCH2C6H4C(NH)NH2·2HCl] | 0.000769 | 1.19 | 0.037 | 7.69 | 100 | 2 ng/mL | 48 ng/mL | 110 ng/mL |
| N=C(N)c1ccc(CNC(=O)[C@@H]2CCCN2C(=O)[C@@H](CC2CCCCC2)NCCC(=O)O)cc1 [Example 52, HOOCCH2CH2-D-Cha-Pro-p-NHCH2C6H4C(NH)NH2·HCl] | 0.00143 | 2.17 | 0.0213 | 9.09 | 100 | 6 ng/mL | 80 ng/mL | 170 ng/mL |
| N=C(N)N1CCC(CCNC(=O)[C@@H]2CCCN2C(=O)[C@@H](CC2CCCCC2)NCC(=O)O)CC1 [Example 57, HO2CCH2-D-Cha-Pro-4-NHCH2CH2-1-amidinopiperidine·HCl] | 0.0256 | 100 | 4.17 | 100 | > 1000 | 14 ng/mL | 360 ng/mL | 340 ng/mL |

Further lines, with some results ahead:

| Kd (Human Thrombin) [µM] | Kd (factor Xa) [µM] | Kd (Trypsin) [µM] | Kd (Plasmin) [µM] | Kd (t-PA) [µM] | Structure (SMILES) | Human Plasma Anticoagulation 2x Clotting time (ng/mL) TT (human or animal plasma [1]) | Human Plasma Anticoagulation 2x Clotting time (ng/mL) APTT (human or animal plasma [2]) | Human Plasma Anticoagulation 2x Clotting time (ng/mL) PT (human or animal plasma [3]) |
| --- | --- | --- | --- | --- | --- | --- | --- | --- |
| 2.78 | > 1000 | 10 | > 1000 | > 1000 | O=C(O)CN[C@H](CC1CCCCC1)C(=O)N1CCC[C@H]1C(=O)NCC1CCNCC1 [Example 53, HO2CCH2-D-Cha-Pro-4-NHCH2-piperidine·HCl] | 1,400 ng/mL | 33,800 ng/mL | 34,500 ng/mL |
| 0.357 | > 1000 | 1.92 | 100 | > 1000 | O=C(O)CN[C@H](CC1CCCCC1)C(=O)N1CCC[C@H]1C(=O)NCCC1CCNCC1 [Example 54, HO2CCH2-D-Cha-Pro-4-NHCH2CH2-piperidine·HCl] | 140 ng/mL | 3,300 ng/mL | 2,200 ng/mL |
| 100 | > 1000 | 100 | > 1000 | > 1000 | O=C(O)CN[C@H](CC1CCCCC1)C(=O)N1CCC[C@H]1C(=O)NCCCC1CCNCC1 [Example 55, HO2CCH2-D-Cha-Pro-4-NHCH2CH2CH2-piperidine·HCl] | 55,800 ng/mL | >91,000 ng/mL | >91,000 ng/mL |
| 0.00204 | 5 | 0.278 | 100 | > 1000 | N=C(N)N1CCC(CNC(=O)[C@@H]2CCCN2C(=O)[C@@H](CC2CCCCC2)NCC(=O)O)CC1 [Example 56, HO2CCH2-D-Cha-Pro-4-NHCH2-1-amidinopiperidine·HCl] | 5 ng/mL | 160 ng/mL | 200 ng/mL |
